The record followed here is US7973069B2 (PTC Therapeutics, Inc., priority 2004, dated 2011).

Where “and” joins values, the source holds several entries; their conditions need not be identical. Equal values may be shown once. Bounds are passed on as bounds.

For this test, the system named is HCV replicon. The test is classed as cell-based.
One may read the IC50 as the concentration that gives 50% inhibition. A higher IC50 goes with lower potency. In turn, `CCOc1ccc2c(C#N)c(-c3ccc(NC(=O)OCCCN4CCOCC4)cc3)n(C3CCC3)c2c1` [Compound 1210] showed an IC50 of less than 0.5 µM.
The compound `CC(C)OC(=O)Nc1ccc(-c2c(C#N)c3ccc(Oc4ncccn4)cc3n2C2CCC2)cc1F` [Compound 2336] registered a 50% inhibitory concentration (IC50) of less than 0.5 µM.
Consider `CCn1c(-c2ccc(NS(=O)(=O)CCCCl)cc2)c(C#N)c2ccc(OC(F)F)cc21` [Compound 930], for which the 50% inhibitory concentration (IC50) is less than 0.5 µM.
Compound `CCn1c(-c2ccc(NC(=O)OCCF)cc2)c(C#N)c2ccc(OC(F)(F)F)cc21` [Compound 888] returned a half-inhibitory concentration (IC50) of 0.5 to 2 µM.
The value for `CCCOc1ccc2c(C#N)c(-c3ccc(NC(=O)OC(C)CC)cc3)n(C(C)C)c2c1` (stereo not shown) [Compound 1246] was less than 0.5 µM.
To `CCCNC(=O)Nc1ccc(-c2c(C#N)c3ccc(OCC)cc3n2CCC)cc1` [Compound 1095] belongs less than 0.5 µM; to `CCNC(=O)Nc1ccc(-c2c(C#N)c3cc(OC)ccc3n2CC)cc1` [Compound 1009], 0.5 to 2 µM.
To `CCCOc1ccc2c(C#N)c(-c3ccc(NC(=O)NC4CC4)cc3)n(C(C)C)c2c1` [Compound 1325] belongs less than 0.5 µM; to `CC(C)NC(=O)Nc1ccc(-c2c(C#N)c3ccc(OCCF)cc3n2C2CCC2)cc1` [Compound 1108], less than 0.5 µM.
For the compound `CCOc1ccc2c(c1)c(C#N)c(-c1ccc(NC(=O)OCC3(C)CC3)cc1)n2C1CCC1` [Compound 1294], the half-inhibitory concentration (IC50) is less than 0.5 µM.
To `CCCS(=O)(=O)Nc1ccc(-c2c(C#N)c3cc(OCC)ccc3n2C2CCC2)cc1` [Compound 1229] belongs 0.5 to 2 µM; to `CC(C)OC(=O)Nc1ccc(-c2c(C#N)c3ccc(OCCF)cc3n2C2CCC2)cc1` [Compound 1174], less than 0.5 µM.
To `CC(C)NC(=O)Nc1ccc(-c2c(C#N)c3cc4c(cc3n2C2CCC2)OCO4)cc1` [Compound 1303] belongs 0.5 to 2 µM; to `CCCCOC(=O)Nc1ccc(-c2c(C#N)c3ccc(OC)cc3n2C2CCC2)cc1` [Compound 1077], less than 0.5 µM; to `N#Cc1cn(CC2CC2)c2cc(OC(F)F)ccc12` [Compound 940], 0.5 to 2 µM.
To `CCOc1ccc2c(c1)c(C#N)c(-c1ccc(NC(=O)OC3CCCC3)cc1)n2C1CCC1` [Compound 1199] belongs less than 0.5 µM.
For `CC(C)COC(=O)Nc1ccc(-c2c(C#N)c3ccc(OC(F)F)cc3n2CC2CC2)cc1` [Compound 1071], the IC50 was 0.5 to 2 µM and > 2 µM.
To `CCCCNC(=O)Nc1ccc(-c2c(C#N)c3cc(OC)ccc3n2C2CCC2)cc1` [Compound 1164] belongs < 0.5 µM and > 2 µM; to `CCn1c(-c2ccc(NC(=O)OC)cc2)c(C#N)c2ccc(OCCCCl)cc21` [Compound 1029], 0.5 to 2 µM; to `CCn1c(-c2ccc(NC(=O)C3CC3)cc2)c(C#N)c2ccc(OCCN3CCOCC3)cc21` [Compound 1025], 0.5 to 2 µM.
Compound `CCCCOC(=O)Nc1ccc(-c2c(C#N)c3ccc(OC(F)F)cc3n2CC)cc1` [Compound 1133] returned an IC50 of 0.5 to 2 µM.
The value for `CCOc1ccc2c(C#N)c(-c3ccc(NC(=O)OCC(C)(C)C)cc3)n(CC3CC3)c2c1` [Compound 1152] was less than 0.5 µM; that for `CCOC(=O)Nc1ccc(-c2c(C#N)c3ccc(OC(F)F)cc3n2CC)cc1` [Compound 1131] was 0.5 to 2 µM.
The compound `CCn1c(-c2ccc(NC(=O)C3CC3)cc2)c(C#N)c2ccc(OCCn3cncn3)cc21` [Compound 1093] displayed an IC50 of 0.5 to 2 µM.
The value for `N#Cc1c(-c2ccc(NC(=O)OC3CCC3)cc2)n(C2CCC2)c2cc(OCC3CCCO3)ccc12` (stereo not shown) [Compound 1282] was less than 0.5 µM; that for `CCCCOC(=O)Nc1ccc(-c2c(C#N)c3ccc(OC)cc3n2C2CCC2)cc1` [Compound 1075] was 0.5 to 2 µM.
The value for `CCOc1ccc2c(C#N)c(-c3ccc(N(CC)C(=O)OC(C)C)cc3)n(C3CC3)c2c1` [Compound 1237] was 0.5 to 2 µM.
To `CCCCNC(=O)Nc1cccc(-c2c(C#N)c3ccc(OCC)cc3n2CCCC)c1` [Compound 1023] belongs 0.5 to 2 µM; to `CC(C)OC(=O)Nc1ccc(-c2c(C#N)c3ccc(Oc4ncccn4)cc3n2C2CCC2)cc1` [Compound 2151], less than 0.5 µM; to `CCn1c(-c2ccc(NC(=O)N3CCCC3)cc2)c(C#N)c2ccc(OC)cc21` [Compound 1089], 0.5 to 2 µM.
Regarding `CCCOc1ccc2c(C#N)c(-c3ccc(NC(=O)OCC(C)(C)C)cc3)n(C(C)C)c2c1` [Compound 1207], the IC50 is less than 0.5 µM.
For the compound `CCCOC(=O)Nc1cccc(-c2c(C#N)c3ccc(OCCCN4CCOCC4)cc3n2CC)c1` [Compound 1034], the IC50 was less than 0.5 µM.
The value for `CCCOc1ccc2c(C#N)c(-c3ccc(NC(=O)OC(C)C)cc3)n(C(C)C)c2c1` [Compound 1204] was less than 0.5 µM; that for `CCOc1ccc2c(C#N)c(-c3ccc(NC(=O)OCCOC)cc3)n(C3CCC3)c2c1` [Compound 975] was 0.5 to 2 µM; that for `COc1ccc2c(C#N)c(-c3ccc(NC(=O)OC(C)C)cc3)n(C3CCC3)c2c1` [Compound 1076] was less than 0.5 µM.
The value for `CCn1c(-c2ccc(NC(=O)OC)cc2)c(C#N)c2ccc(OCCCN3CCOCC3)cc21` [Compound 1112] was 0.5 to 2 µM; that for `CCn1c(-c2ccc(NC(=O)OC)cc2)c(C#N)c2ccc(OC(F)(F)F)cc21` [Compound 886] was 0.5 to 2 µM.
The value for `C=CCOC(=O)Nc1ccc(-c2c(C#N)c3ccc(OC(F)F)cc3n2CC)cc1` [Compound 1135] was less than 0.5 µM; that for `CCOc1ccc2c(C#N)c(-c3ccc(NC(=O)OC(C)C)cc3)n(C3CCC3)c2c1` [Compound 973] was less than 0.5 µM.
As for `CC(C)NC(=O)Nc1ccc(-c2c(C#N)c3ccc(OCCCN4CCOCC4)cc3n2C2CCC2)cc1` [Compound 1306], the 50% inhibitory concentration (IC50) lay in the range of 0.5 to 2 µM.
Regarding `CCn1c(-c2ccc(NS(=O)(=O)C3CC3)c(C)c2)c(C#N)c2ccc(OC)cc21` [Compound 962], the IC50 is 0.5 to 2 µM.
The value for `CCC(=O)Nc1ccc(-c2c(C#N)c3ccc(OC(F)(F)F)cc3n2CC)cc1` [Compound 914] was 0.5 to 2 µM.
To `CCCOc1ccc2c(C#N)c(-c3ccc(NC(=O)OC4CCOC4)cc3)n(C(C)C)c2c1` (stereo not shown) [Compound 1249] belongs less than 0.5 µM; to `COCn1c(-c2ccc(N3CCCS3(=O)=O)cc2)c(C#N)c2ccc(OC)cc21` [Compound 990], 0.5 to 2 µM; to `CCOc1ccc2c(C#N)c(-c3ccc(NC(=O)NC4CCCC4)cc3)n(C3CCCC3)c2c1` [Compound 1214], less than 0.5 µM.
The value for `CCCCNC(=O)Nc1ccc(-c2c(C#N)c3ccc(OCC)cc3n2CCC)cc1` [Compound 1097] was less than 0.5 µM; that for `CC(C)OC(=O)Nc1ccc(-c2c(C#N)c3ccc(OCc4cccnc4)cc3n2C2CCC2)cc1` [Compound 1218] was less than 0.5 µM.
For `CCNC(=O)Nc1ccc(-c2c(C#N)c3ccc(OCC)cc3n2CC2CC2)cc1` [Compound 1156], the IC50 is less than 0.5 µM.
Take `CCOc1ccc2c(C#N)c(-c3ccc(NC(=O)NC4CC4)cc3)n(C3CCC3)c2c1` [Compound 1191]: the 50% inhibitory concentration (IC50) lay in the range of 0.5 to 2 µM.
The value for `CCCOc1ccc2c(C#N)c(-c3ccc(NC(=O)NC4CCC4)cc3)n(C(C)C)c2c1` [Compound 1326] was 0.5 to 2 µM; that for `CCNC(=O)Nc1ccc(-c2c(C#N)c3ccc(OCCCN4CCOCC4)cc3n2CC)cc1` [Compound 1124] was < 0.5 µM and 0.5 to 2 µM; that for `CCOc1ccc2c(C#N)c(-c3ccc(NC(=O)OCC4CCC4)cc3)n(C3CCC3)c2c1` [Compound 1158] was less than 0.5 µM.
